Results published in publication PMC9022596, “Convergent Evolution of Antibiotic Tolerance in Patients with Persistent Methicillin-Resistant Staphylococcus aureus Bacteremia” (Infection and Immunity, 2022).

Columns and labels:
Assay in all cases: microbe, parasite or virus in culture
Design in all cases: Broth microdilution MIC in cation-adjusted MHB-Ca2+, growth inhibition per EUCAST reading
[1] = tested on: T1, Staphylococcus aureus PB0115; conditions: PB0115, 16 h
T1 construct: PB0115
Method: (§1) MICs were measured in cation-adjusted Mueller-Hinton broth (MHB) supplemented with 50 μg/mL CaCl2 (MHB-Ca^2+) via broth microdilution in 96-well plates with an inoculum of ∼5 × 10^5 CFU per mL. Antibiotic test concentrations ranged from 0.0625 μg/mL to 32 μg/mL by 2-fold dilutions. Plates were incubated at 37°C for 16 h without shaking, and results were interpreted in accordance with European Committee on Antimicrobial Susceptibility Testing reading guidelines ([72]). S. aureus ATCC 29213 was used as a quality-control strain. TCA cycle defects have been shown previously to cause antibiotic tolerance in laboratory strains of methicillin-sensitive S. aureus (MSSA) ([13], [16]). […] To test this hypothesis, we complemented three of the clinical isolates harboring loss-of-function citZ mutations with either wild-type citZ (pOS1-citZ) or empty vector (pOS1) and then measured bacterial survival through time after exposure to ceftaroline, daptomycin, vancomycin, or the combination of daptomycin plus ceftaroline (Fig. 3). These antibiotics were chosen for their clinical relevance in the treatment of severe MRSA infection.

[2] = tested on: T2, Staphylococcus aureus PB0412; conditions: PB0412, 16 h
T2 construct: PB0412
Method: as §1

[3] = tested on: T3, Staphylococcus aureus PB0203; conditions: PB0203, 16 h
T3 construct: PB0203
Method: as §1

[4] = tested on: T4, Staphylococcus aureus PB0704; conditions: PB0704, 16 h
T4 construct: PB0704
Method: as §1

[5] = tested on: T5, Staphylococcus aureus PB0113; conditions: PB0113, 16 h
T5 construct: PB0113
Method: as §1

[6] = tested on: T6, Staphylococcus aureus PB1509; conditions: PB1509, 16 h
T6 construct: PB1509
Method: as §1

[7] = tested on: T7, Staphylococcus aureus PB1505; conditions: PB1505, 16 h
T7 construct: PB1505
Method: as §1

[8] = tested on: T8, Staphylococcus aureus PB0801; conditions: PB0801, 16 h
T8 construct: PB0801
Method: as §1

[9] = tested on: T9, Staphylococcus aureus PB0112; conditions: PB0112, 16 h
T9 construct: PB0112
Method: as §1

[10] = tested on: T10, Staphylococcus aureus PB0905; conditions: PB0905, 16 h
T10 construct: PB0905
Method: as §1

[11] = tested on: T11, Staphylococcus aureus PB0805; conditions: PB0805, 16 h
T11 construct: PB0805
Method: as §1

[12] = tested on: T12, Staphylococcus aureus PB0601; conditions: PB0601, 16 h
T12 construct: PB0601
Method: as §1

[13] = tested on: T13, Staphylococcus aureus PB1103; conditions: PB1103, 16 h
T13 construct: PB1103
Method: as §1

[14] = tested on: T14, Staphylococcus aureus PB0903; conditions: PB0903, 16 h
T14 construct: PB0903
Method: as §1

[15] = tested on: T15, Staphylococcus aureus PB1408; conditions: PB1408, 16 h
T15 construct: PB1408
Method: as §1

[16] = tested on: T16, Staphylococcus aureus PB0605; conditions: PB0605, 16 h
T16 construct: PB0605
Method: as §1

[17] = tested on: T17, Staphylococcus aureus PB0609; conditions: PB0609, 16 h
T17 construct: PB0609
Method: as §1

[18] = tested on: T18, Staphylococcus aureus PB0803; conditions: PB0803, 16 h
T18 construct: PB0803
Method: as §1

| SMILES | MIC ([1]; replicate 1) [µg/mL] | MIC ([1]; replicate 2) [µg/mL] | MIC ([2]; replicate 1) [µg/mL] | MIC ([2]; replicate 2) [µg/mL] | MIC ([3]; replicate 1) [µg/mL] | MIC ([3]; replicate 2) [µg/mL] | MIC ([4]; replicate 1) [µg/mL] | MIC ([4]; replicate 2) [µg/mL] | MIC ([5]; replicate 1) [µg/mL] | MIC ([5]; replicate 2) [µg/mL] | MIC ([6]; replicate 1) [µg/mL] | MIC ([6]; replicate 2) [µg/mL] | MIC ([7]; replicate 1) [µg/mL] | MIC ([7]; replicate 2) [µg/mL] | MIC ([8]; replicate 1) [µg/mL] | MIC ([8]; replicate 2) [µg/mL] | MIC ([9]; replicate 1) [µg/mL] | MIC ([9]; replicate 2) [µg/mL] | MIC ([10]; replicate 1) [µg/mL] | MIC ([10]; replicate 2) [µg/mL] | other results |
| --- | --- | --- | --- | --- | --- | --- | --- | --- | --- | --- | --- | --- | --- | --- | --- | --- | --- | --- | --- | --- | --- |
| CCO/N=C(\C(=O)N[C@@H]1C(=O)N2C(C(=O)[O-])=C(Sc3nc(-c4cc[n+](C)cc4)cs3)CS[C@H]12)c1nsc(N)n1 [Ceftaroline] | 0.5 | 0.5 | 0.5 | 0.5 | 0.5 | 0.5 | 0.25 | 0.25 | 0.5 | 0.5 | 0.5 | 0.5 | 0.5 | 0.5 | 0.5 | 0.5 | 0.5 | 0.5 | 0.5 | 0.5 | MIC ([11]; replicate 1): 0.5 µg/mL; MIC ([11]; replicate 2): 0.5 µg/mL; MIC ([12]; replicate 1): 0.25 µg/mL; MIC ([12]; replicate 2): 0.25 µg/mL; MIC ([13]; replicate 1): 0.5 µg/mL; MIC ([13]; replicate 2): 0.5 µg/mL; MIC ([14]; replicate 1): 0.5 µg/mL; MIC ([14]; replicate 2): 0.5 µg/mL; MIC ([15]; replicate 1): 0.5 µg/mL; MIC ([15]; replicate 2): 0.5 µg/mL; MIC ([16]; replicate 1): 0.25 µg/mL; MIC ([16]; replicate 2): 0.25 µg/mL; MIC ([17]; replicate 1): 0.25 µg/mL; MIC ([17]; replicate 2): 0.25 µg/mL; MIC ([18]; replicate 1): 0.5 µg/mL; MIC ([18]; replicate 2): 0.5 µg/mL |
| CCCCCCCCCC(=O)N[C@@H](Cc1c[nH]c2ccccc12)C(=O)N[C@H](CC(N)=O)C(=O)N[C@@H](CC(=O)O)C(=O)N[C@@H]1C(=O)NCC(=O)N[C@@H](CCCN)C(=O)N[C@@H](CC(=O)O)C(=O)N[C@H](C)C(=O)N[C@@H](CC(=O)O)C(=O)NCC(=O)N[C@H](CO)C(=O)N[C@@H]([C@H](C)CC(=O)O)C(=O)N[C@@H](CC(=O)c2ccccc2N)C(=O)O[C@@H]1C [Daptomycin] | 2 | 2 | 2 | 2 | 1 | 1 | 1 | 1 | 1 | 1 | 2 | 2 | 1 | 2 | 1 | 1 | 1 | 1 | 2 | 2 | MIC ([11]; replicate 1): 1 µg/mL; MIC ([11]; replicate 2): 1 µg/mL; MIC ([12]; replicate 1): 1 µg/mL; MIC ([12]; replicate 2): 1 µg/mL; MIC ([13]; replicate 1): 1 µg/mL; MIC ([13]; replicate 2): 1 µg/mL; MIC ([14]; replicate 1): 2 µg/mL; MIC ([14]; replicate 2): 2 µg/mL; MIC ([15]; replicate 1): 2 µg/mL; MIC ([15]; replicate 2): 2 µg/mL; MIC ([16]; replicate 1): 1 µg/mL; MIC ([16]; replicate 2): 2 µg/mL; MIC ([17]; replicate 1): 1 µg/mL; MIC ([17]; replicate 2): 1 µg/mL; MIC ([18]; replicate 1): 2 µg/mL; MIC ([18]; replicate 2): 2 µg/mL |
| CC(=O)NC[C@H]1CN(c2ccc(N3CCOCC3)c(F)c2)C(=O)O1 [Linezolid] | 4 | 4 | 4 | 4 | 4 | 4 | 4 | 4 | 4 | 4 | 4 | 4 | 4 | 4 | 4 | 4 | 4 | 4 | 4 | 4 | MIC ([11]; replicate 1): 4 µg/mL; MIC ([11]; replicate 2): 4 µg/mL; MIC ([12]; replicate 1): 4 µg/mL; MIC ([12]; replicate 2): 4 µg/mL; MIC ([13]; replicate 1): 4 µg/mL; MIC ([13]; replicate 2): 4 µg/mL; MIC ([14]; replicate 1): 4 µg/mL; MIC ([14]; replicate 2): 4 µg/mL; MIC ([15]; replicate 1): 4 µg/mL; MIC ([15]; replicate 2): 4 µg/mL; MIC ([16]; replicate 1): 4 µg/mL; MIC ([16]; replicate 2): 4 µg/mL; MIC ([17]; replicate 1): 4 µg/mL; MIC ([17]; replicate 2): 4 µg/mL; MIC ([18]; replicate 1): 4 µg/mL; MIC ([18]; replicate 2): 4 µg/mL |
